“Also recorded” adds a separate entry of the source. Like-named read-outs stand apart in the source and are kept apart here. Where a SMILES comes first, the peptide text is derived from it. Bridges are numbered along the chain shown (N, C = ends). [ ]: non-standard residue; d: D form. The star is where a group is joined. Tle = CC(C)(C)[C@H](N)C(=O)O; Hexanoyl = CCCCCC(=O)*; Aib = CC(C)(N)C(=O)O; Acm = CC(=O)NC*; Sar = CNCC(=O)O
How the values were obtained:
[1] = tested on: TFPI; assay: Extrinsic Tenase Inhibition assay | % Inhibition @ 2.5μM
[2] = in vitro; conditions: human, plasma
[3] = tested on: TFPI; assay: % Inhibition @ 0.63µM
[4] = tested on: TFPI; assay: % Inhibition @ 2.5µM
[5] = tested on: TFPI; assay: FXa Inhibition assay | EC50 (µM)
[6] = tested on: FVIII-inhibited whole blood; assay: Rotation thromboelastography (ROTEM) in whole blood; set-up: species or system human; conditions: Hem A / FVIII-inhibited human whole blood
Protocol: Continuous visco-elastic assessment of human whole blood clot formation and firmness was performed by rotation thromboelastography with whole blood preparations in the presence or absence of peptides. […] Test samples were prepared by dissolving quantities of peptides in either DMSO or HEPES buffered saline (with or without 0.1% Tween 80).
Recordings were made using a ROTEM thromboelastography coagulation analyzer (Pentapharm, Munich, Germany) at 37° C. Briefly, blood is added into a disposable cuvette in a heated cuvette holder. A disposable pin (sensor) is fixed on the tip of a rotating axis. The axis is guided by a high precision ball bearing system and rotates back and forth. The axis is connected with a spring for the measurement of elasticity. The exact position of the axis is detected by the reflection of light on a small mirror on the axis. The loss of elasticity when the sample clots leads to a change in the rotation of the axis. The data obtained are computer analyzed and visualized in a thromboelastogram. […] An elasticity of approximately zero is observed before clot formation begins. Mirror image traces above and below the zero line indicate the effect of clot formation on the rotation of the axis.
The analytical set-up was as follows: to 20 μL of test sample or control, 300 μL of pre-warmed (37° C.) CTI treated citrated whole blood was added, followed by 20 μL of a 1:15 dilution of TF PRP reagent containing recombinant human tissue factor (rTF, 3 pM) (TS40, Thrombinoscope BV, Maastricht, The Netherlands). Coagulation was initiated by the addition of 20 μ200 mM CaCl2 (star-TEM®, Pentapharm, Munich, Germany) and recordings were allowed to proceed for at least 120 min. The final concentration of rTF in the assay was 11 or 44 fM.
The thromboelastographic parameters of clotting time (CT), clot formation time (CFT) and maximum clot firmness (MCF) were recorded in accordance with the manufacturer's instructions. CT is defined as the time from the start of measurement to the start of clot formation. CFT is defined as the time from the start of clot formation until an amplitude of 20 mm is reached. MCF is the maximum difference in amplitude between the two traces during the assay. The first derivative of the data of the thromboelastogram are plotted to obtain a graph of velocity (mm/s) against time (s). From this graph, the maximum velocity (maxV) is determined. The time at which the maximum velocity is obtained (maxV-t) is also determined.
This example describes a method for assessing clot formation in whole blood using rotation thromboelastography (ROTEM). The assay was performed as described in Example 8. The analytical set-up was as follows: 300 μL of pre-warmed (37° C.) CTI treated citrated whole blood was added to a peptide sample (10, 100, 1000 nM final assay concentration) or a control, followed by addition of a 1:15 dilution of TF PRP reagent containing recombinant human tissue factor (rTF, 3 pM) (TS40, Thrombinoscope BV, Maastricht, The Netherlands). In certain experiments, exogenous full length TFPI (flTFPI) at final concentrations of 2 or 10 nM was added to simulate flTFPI plasma levels of up to 50-fold over normal. Coagulation was initiated by the addition of 20 μL 200 mM CaCl2 (star-TEM®, Pentapharm, Munich, Germany) and recordings were allowed to proceed for at least 120 min. The final concentration of rTF in the assay was 44 fM. The thromboelastographic parameters of clotting time (CT), clot formation time (CFT) and maximum clot firmness (MCF) were recorded in accordance with the manufacturer's instructions. CT is defined as the time from the start of measurement to the start of clot formation. CFT is defined as the time from the start of clot formation until an amplitude of 20 mm is reached. MCF is the maximum difference in amplitude between the two traces during the assay.

[7] = mouse, 24 h; for percentage of initial amount of peptide remaining: plasma
[8] = tested on: TFPI; assay: Extrinsic Tenase Inhibition assay | % Inhibition @ 2.5μM; remark: listed apart in the source

**Q.** Which “Extrinsic Tenase Inhibition assay | % Inhibition @ […]” value [1] does the source give for “Ac-SRYKWFGM[CRDMKGTMSC]VWVKF-NH2 (SEQ ID NO: 1233) (Ac-SRYKWFGMCRDMKGTMSCVWVKF-NH2; disulfide 9-18; SMILES CSCC[C@H](NC(=O)CNC(=O)[C@H](Cc1ccccc1)NC(=O)[C@H](Cc1c[nH]c2ccccc12)NC(=O)[C@H](CCCCN)NC(=O)[C@H](Cc1ccc(O)cc1)NC(=O)[C@H](CCCNC(=N)N)NC(=O)[C@H](CO)NC(C)=O)C(=O)N[C@H]1CSSC[C@@H](C(=O)N[C@H](C(=O)N[C@@H](Cc2c[nH]c3ccccc23)C(=O)N[C@H](C(=O)N[C@@H](CCCCN)C(=O)N[C@@H](Cc2ccccc2)C(N)=O)C(C)C)C(C)C)NC(=O)[C@H](CO)NC(=O)[C@H](CCSC)NC(=O)[C@H]([C@@H](C)O)NC(=O)CNC(=O)[C@H](CCCCN)NC(=O)[C@H](CCSC)NC(=O)[C@H](CC(=O)O)NC(=O)[C@H](CCCNC(=N)N)NC1=O) [JBT0462]” here?
**A.** 0%

**Q.** Which remaining at 24 h [2] does the source give for `CC(=O)N[C@@H](Cc1ccccc1)C(=O)N[C@@H](CCC(N)=O)C(=O)N[C@@H](CO)C(=O)N[C@@H](CCCCN)C(=O)N1CCC[C@@H]1C(=O)N[C@@H](CC(N)=O)C(=O)N[C@H](C(=O)N[C@@H](Cc1c[nH]cn1)C(=O)N[C@H](C(=O)N[C@@H](CC(=O)O)C(=O)N[C@H](C)C(=O)N[C@@H](Cc1ccc(O)cc1)C(=O)N[C@@H](Cc1ccccc1)C(=O)N[C@@H](CCC(=O)O)C(=O)N[C@@H](CCCNC(=N)N)C(=O)N[C@@H](CC(C)C)C(=O)NC(C)(C)C(=O)N[C@@H](C)C(=O)N[C@@H](CCCCN)C(=O)N[C@@H](CC(C)C)C(N)=O)C(C)C)C(C)C` [JBT2414] (Ac-FQSK[dP]NVHVD[dA]YFERL[Aib]AKL-NH2) here?
**A.** 100%

**Q.** Which “Extrinsic Tenase Inhibition assay | % Inhibition @ […]” value [1] does the source give for “Ac-SRYKWFCGMRDMKGTMSAVWVKF-NH2 (SEQ ID NO: 1160) [JBT0454]” here?
**A.** 0%

**Q.** With “Ac-FQSKaNVFVFGYFERLRAKL-NH2 (SEQ ID NO: 53) (Ac-FQSK[dA]NVFVFGYFERLRAKL-NH2; SMILES CC(=O)N[C@@H](Cc1ccccc1)C(=O)N[C@@H](CCC(N)=O)C(=O)N[C@@H](CO)C(=O)N[C@@H](CCCCN)C(=O)N[C@H](C)C(=O)N[C@@H](CC(N)=O)C(=O)N[C@H](C(=O)N[C@@H](Cc1ccccc1)C(=O)N[C@H](C(=O)N[C@@H](Cc1ccccc1)C(=O)NCC(=O)N[C@@H](Cc1ccc(O)cc1)C(=O)N[C@@H](Cc1ccccc1)C(=O)N[C@@H](CCC(=O)O)C(=O)N[C@@H](CCCNC(=N)N)C(=O)N[C@@H](CC(C)C)C(=O)N[C@@H](CCCNC(=N)N)C(=O)N[C@@H](C)C(=O)N[C@@H](CCCCN)C(=O)N[C@@H](CC(C)C)C(N)=O)C(C)C)C(C)C) [JBT0663]” as the compound, how does the “% Inhibition @ […]” value [3] read?
**A.** 60%

**Q.** And the “% Inhibition @ […]” value [4]?
**A.** 81%

**Q.** And the EC50 [5]?
**A.** 290 nM

**Q.** Which results are given for “Ac-FQSKKAVFVFGYFERLRAKL-NH2 (SEQ ID NO: 288) [JBT0696]”?
**A.** % Inhibition @ […] [3]: 26%; % Inhibition @ […] [4]: 48%; EC50 [5]: 710 nM

**Q.** With `CC(=O)N[C@@H](Cc1ccccc1)C(=O)N[C@@H](CCC(N)=O)C(=O)N[C@@H](CO)C(=O)N[C@@H](CCCCN)C(=O)N1CCC[C@@H]1C(=O)N[C@@H](CC(N)=O)C(=O)N[C@H](C(=O)N[C@@H](Cc1cnc[nH]1)C(=O)N[C@H](C(=O)N[C@@H](CC(=O)O)C(=O)NCC(=O)N[C@@H](Cc1ccc(O)cc1)C(=O)N[C@@H](Cc1ccccc1)C(=O)N[C@@H](CCC(=O)O)C(=O)N[C@@H](CCCNC(=N)N)C(=O)N[C@@H](CC(C)C)C(=O)NC(C)(C)C(=O)N[C@@H](C)C(=O)N[C@@H](CCCCN)C(=O)N[C@@H](CC(C)C)C(N)=O)C(C)C)C(C)C` [JBT1857] as the compound, how does the “percentage of original amount of peptide remaining” value (human, plasma, 24 h) read?
**A.** 27%

**Q.** What about the remaining at 24 h [2] of the same compound?
**A.** 27%

**Q.** What about the coagulation parameters [6] of the same compound?
**A.** restored coagulation parameters in Hem A blood; also recorded: positively impacted blood coagulation parameters, but performed less efficiently than JBT1837

**Q.** What about the “percentage of initial amount of peptide remaining in plasma” value [7] of the same compound?
**A.** < 10%

**Q.** And the “percentage of initial amount of peptide remaining” value [7]?
**A.** Less than 5%

**Q.** With `CC(=O)N[C@@H](Cc1ccccc1)C(=O)N[C@@H](CCC(N)=O)C(=O)N[C@@H](CO)C(=O)N[C@@H](CCCCN)C(=O)N(C)CC(=O)N[C@@H](CC(N)=O)C(=O)N[C@H](C(=O)N[C@@H](Cc1ccccc1)C(=O)N[C@H](C(=O)N[C@@H](CC(=O)O)C(=O)NCC(=O)N[C@@H](Cc1ccc(O)cc1)C(=O)N[C@@H](Cc1ccccc1)C(=O)N[C@@H](CCC(=O)O)C(=O)N[C@@H](CCCNC(=N)N)C(=O)N[C@@H](CC(C)C)C(=O)N[C@@H](CCCNC(=N)N)C(=O)N[C@@H](C)C(=O)N[C@@H](CCCCN)C(=O)N[C@@H](CC(C)C)C(N)=O)C(C)C)C(C)C` [JBT0717] (Ac-FQSK[Sar]NVFVDGYFERLRAKL-NH2) as the compound, how does the “Plasma Stability (half life in minutes) human” value read?
**A.** >120 min

**Q.** With `CCCCCC(=O)N[C@@H](Cc1ccccc1)C(=O)N[C@@H](CCC(N)=O)C(=O)N[C@@H](CO)C(=O)N[C@@H](CCCCN)C(=O)N1CCC[C@@H]1C(=O)N[C@@H](CSCNC(C)=O)C(=O)N[C@H](C(=O)N[C@@H](Cc1cnc[nH]1)C(=O)N[C@H](C(=O)N[C@@H](CC(=O)O)C(=O)N[C@H](C)C(=O)N[C@@H](Cc1ccc(O)cc1)C(=O)N[C@@H](Cc1ccccc1)C(=O)N[C@@H](CCC(=O)O)C(=O)N[C@@H](CCCNC(=N)N)C(=O)N[C@@H](CC(C)C)C(=O)NC(C)(C)C(=O)N[C@@H](C)C(=O)N[C@@H](CCCCN)C(=O)N[C@@H](CC(C)C)C(N)=O)C(C)(C)C)C(C)C` [JBT2528, Hex-FQSKp-C(Acm)-VH-Tle-DaYFERL-Aib-AKL-NH2] (Hexanoyl-FQSK[dP]C(Acm)VH[Tle]D[dA]YFERL[Aib]AKL-NH2) as the compound, how does the remaining at 24 h [2] read?
**A.** 93%

**Q.** What about the “percentage of initial amount of peptide remaining” value [7] of the same compound?
**A.** 35%

**Q.** For `CC(=O)N[C@@H](Cc1ccccc1)C(=O)N[C@@H](CCC(N)=O)C(=O)N[C@@H](CO)C(=O)N[C@@H](CCCCN)C(=O)N(C)CC(=O)N[C@@H](CC(N)=O)C(=O)N[C@H](C(=O)N[C@@H](Cc1ccccc1)C(=O)N[C@H](C(=O)N[C@@H](CC(=O)O)C(=O)NCC(=O)N[C@@H](Cc1ccc(O)cc1)C(=O)N[C@@H](Cc1ccccc1)C(=O)N[C@@H](CCC(=O)O)C(=O)N[C@@H](CCCNC(=N)N)C(=O)N[C@@H](CC(C)C)C(=O)NC(C)(C)C(=O)N[C@@H](C)C(=O)N[C@@H](CCCCN)C(=O)N[C@@H](CC(C)C)C(N)=O)C(C)C)C(C)C` [JBT1584], which “Plasma Stability (half life in minutes) human” value is on record?
**A.** >120 min

**Q.** Which “% Inhibition @ […]” value [3] does the source give for “Ac-FQSKaNVFVTGYFARLRAKL-NH2 (SEQ ID NO: 54) (Ac-FQSK[dA]NVFVTGYFARLRAKL-NH2; SMILES CC(=O)N[C@@H](Cc1ccccc1)C(=O)N[C@@H](CCC(N)=O)C(=O)N[C@@H](CO)C(=O)N[C@@H](CCCCN)C(=O)N[C@H](C)C(=O)N[C@@H](CC(N)=O)C(=O)N[C@H](C(=O)N[C@@H](Cc1ccccc1)C(=O)N[C@H](C(=O)N[C@H](C(=O)NCC(=O)N[C@@H](Cc1ccc(O)cc1)C(=O)N[C@@H](Cc1ccccc1)C(=O)N[C@@H](C)C(=O)N[C@@H](CCCNC(=N)N)C(=O)N[C@@H](CC(C)C)C(=O)N[C@@H](CCCNC(=N)N)C(=O)N[C@@H](C)C(=O)N[C@@H](CCCCN)C(=O)N[C@@H](CC(C)C)C(N)=O)[C@@H](C)O)C(C)C)C(C)C) [JBT0668]” here?
**A.** 43%

**Q.** And the “% Inhibition @ […]” value [4]?
**A.** 70%

**Q.** And the EC50 [5]?
**A.** 520 nM

**Q.** With “Ac-SRYKWF[CGMRDMKGTLSC]VWVKF-NH2 (SEQ ID NO:1064) [JBT1506]” as the compound, how does the “Extrinsic Tenase Inhibition assay | % Inhibition @ […]” value [8] read?
**A.** 45%

From patent publication US10800816B2 (Baxalta GmbH, priority 2012, dated 2020)
